Among the data in PubChem BioAssay (NCI) are TGI and GI50 values, retold here.

Common to all, as to experiment: growth of human tumour cells (NCI), 48 h
For assay [1], the system named is A549 NSCLC.
The subject of assay [2] is COLO 205 colon.
In assay [3] the test system is DLD-1 colon.
Assay [4] has as its system HL-60(TB) leukemia.
Assay [5] relates to IGROV1 ovarian.
The test system of assay [6] is OVCAR-3 ovarian.
Assay [7] has as its system OVCAR-4 ovarian.
In assay [8] the test system is SK-MEL-2 melanoma.
Assay [9] concerns SNB-78 CNS.
The subject of assay [10] is U251 CNS.

Several values for one entry are separate records, joined by “and”; a condition that tells them apart may be missing. Equal values may be shown once.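 Five concentrations, 48 hours, 96-well plates. GI50: concentration for 50% inhibition of growth. TGI marks complete inhibition of growth.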 Some results are limits rather than exact numbers.

With `c1ccc2c(c1)nnn1c3cnccc3nc21`, the TGI in assay [1] was above 100 µM; in assay [2], 46.1 µM; in assay [3], above 100 µM; in assay [4] it was 33 µM; in assay [5], above 100 µM; in assay [6], 55.8 µM. Moreover, the TGI in assay [7] was 96.6 µM; in assay [8] it was above 100 µM; in assay [9], above 100 µM; in assay [10], above 100 µM.
`CCCCCCCCC(=O)CCCCCCCCC(=O)O`: the TGI came out at 45.2 µM in [1]; 59.8 µM in [2]; 40.1 µM in assay [3]; 16.2 µM in [4]; 36.4 µM in assay [5]; 40.1 µM in [6]. The TGI in [7], in assay [8], in assay [9] and in [10] was above 100 µM throughout.
`CCN(CC)CC(O)CNc1ccc(NCC(O)CCl)c2c1C(=O)c1ccccc1C2=O` (centres undefined): the TGI in assay [1] came to 24.4 µM; in [2], 21.6 µM; in [3], 38.9 µM; in assay [4], 11.3 µM; in assay [5] it was 25.5 µM; in assay [6], 19.3 µM. Moreover, the TGI in [7] came to 16.1 µM; in assay [8], 26.2 µM; in assay [9], 22.8 µM; in assay [10], 28 µM.
Regarding `COc1ccccc1/C=C1\CCC(CN(C)C)C1=O` (centres undefined), the TGI in assay [1] was 40.6 µM; in assay [2] it was 8.38 µM; in [3], 4.98 µM; in [4] it was 6.68 µM; in assay [5] it was 32.7 µM; in [6], 18.6 µM. The TGI in assay [7] is 19.6 µM; in [8], 24.4 µM; in [9] it was 29.2 µM; in [10] it was 26.9 µM.
For `S=C1CNC(=S)CN1`, the TGI in assay [1], in assay [2], in [3], in assay [4], in assay [5] and in assay [6] was above 100 µM each time. The TGI in assay [7], in [8], in assay [9] and in assay [10] was above 100 µM throughout.
On to `Cc1ccc(NC(=O)C2C(=O)C(=O)N(c3ccc(C)cc3)C2=O)cc1` (centres undefined), for which the TGI in [1], in [2], in [3], in assay [4], in assay [5] and in assay [7] was above 100 µM each time. The TGI in [8], in assay [9] and in [10] was above 100 µM throughout.
With `CCC[CH2][Sn]([CH2]CCC)([O]C(=O)c1cc(OC)c(OC)c(OC)c1)[O]C(=O)c1cc(OC)c(OC)c(OC)c1`, the GI50 in [1] is 3.59 µM; in assay [2], 1.22 µM; in [3], 1.21 µM; in assay [5], 1.32 µM; in assay [6] it was 1.26 µM; in assay [7], 1.48 µM. Besides, the values for the GI50 in assay [8], in assay [9] and in [10] were 1.1 µM, 0.453 µM and 1.28 µM, respectively. Also, the TGI in assay [1] was 13.8 µM; in assay [2], 2.59 µM; in assay [3] it was 2.46 µM; in assay [5], 2.73 µM; in assay [6], 2.59 µM; in [7], 2.9 µM. The TGI in [8] stood at 2.31 µM; in assay [9] it was 1.58 µM; in assay [10], 2.55 µM.
Turning to `Cc1cc(=O)[nH]c(CNC(=O)c2cccc3ccccc23)n1`, the TGI in assay [1], in assay [2], in assay [3], in [4], in assay [5] and in assay [6] was above 100 µM each time. The TGI in assay [7], in assay [9] and in assay [10] was above 100 µM each time.
For the compound `COC(=O)C(=C\Sc1ccccc1)/C=C/C(=O)OC(C)(C)C`, the TGI in [1] amounted to 42 µM; in [2] it was 14 µM; in assay [3], 7.59 µM; in assay [4], 3.73 µM; in assay [5], 27.5 µM; in assay [6] it was 17 µM. Also, the TGI in assay [7] was found to be 28.6 µM; in assay [8], 24.8 µM; in [9] it was 31.9 µM; in [10], 27.7 µM.
For `O=C1C(CN(Cc2ccccc2)Cc2ccccc2)CCCC1CN(Cc1ccccc1)Cc1ccccc1` (centres undefined), the TGI was above 100 µM in assay [1]; 10.4 µM and > 100 µM in assay [3]; 12 µM and > 100 µM in assay [4]; above 100 µM in assay [5]; 46.8 µM and > 100 µM in [6]; 36.6 µM and > 100 µM in [7]. Moreover, the TGI is 36 µM and > 100 µM in assay [8]; above 100 µM in assay [9]; above 100 µM in assay [10]. Further, the GI50 in [6] is 29.6 µM and > 100 µM; in [7] it was 20 µM and > 79.8 µM; in assay [8], 19.6 µM and > 69.9 µM; in assay [9], 28.1 µM and > 100 µM; in assay [10], 41.7 µM and > 100 µM.
With `Cc1cc(NC(=O)NC(=O)c2ccccc2[N+](=O)[O-])ccc1Oc1ncc(Cl)cn1`, the TGI in assay [1] is above 100 µM; in [2], above 20 µM; in assay [3], 43.7 µM; in assay [4], 0.137 µM; in assay [5], 98.9 µM; in [6] it was 1.34 µM. For the same compound, the figures for the TGI in assay [7], in assay [9] and in assay [10] were 31.3 µM, 62.6 µM and 4.42 µM, respectively.
Turning to `NC1=NN(c2ccccc2)C(=O)C1C(=O)C(=O)NC1C2CC3CC(C2)CC1C3` (centres undefined), the TGI in assay [1], in assay [2], in assay [3], in assay [4], in assay [5] and in [6] was above 100 µM each time. Further, the TGI in assay [7], in assay [8], in [9] and in assay [10] was above 100 µM in each case.
For the compound `C=CCOC1=C2CC[C@H](O)[C@@]2(C)CCC1=O`, the TGI in assay [1], in [2], in assay [3], in assay [4], in assay [5] and in assay [6] was above 100 µM each time. The TGI in [7], in assay [9] and in assay [10] was above 100 µM throughout.
As to `CCOC(=O)NC(=O)c1cn(CCCCCCCCCCC(=O)N2CCN(CCn3cc(C(=O)NC(=O)OCC)c(=O)[nH]c3=O)CC2)c(=O)[nH]c1=O`, the TGI in assay [1], in assay [2], in [3], in [4], in assay [5] and in [6] was above 100 µM throughout. For the same compound, the TGI in assay [7], in [9] and in assay [10] was above 100 µM each time.
Take `CCCCCCCCCCCCCCCCc1c(C(=O)OC)[nH]c(=S)[nH]c1=O`: the TGI in [1], in [2], in assay [3], in [4], in [5] and in [6] was above 50 µM in each case. For the same compound, the TGI in [7], in [8], in [9] and in assay [10] was above 50 µM throughout.
In the case of `Cn1c(O)c(C=N)c(=O)n(C)c1=O`, the TGI in [1], in assay [3], in assay [4], in assay [6], in assay [7] and in [8] was above 100 µM throughout. Moreover, the TGI in [9] and in assay [10] was above 100 µM each time.
Turning to `OCC1OC(n2ccc3cnccc32)CC1O` (centres undefined), the TGI in [1], in assay [2], in [3], in assay [4], in [5] and in assay [6] was above 100 µM in each case. Also, the TGI in assay [7], in assay [8], in assay [9] and in assay [10] was above 100 µM throughout.
Turning to `CC1C(=O)CCC1C(Sc1ccccc1)(Sc1ccccc1)Sc1ccccc1` (centres undefined), the TGI in [1] is above 100 µM; in assay [2] it was above 100 µM; in assay [3], above 100 µM; in assay [4], 23.7 µM; in [5], 78.4 µM; in assay [6] it was above 100 µM. Besides, the TGI in [7], in assay [8], in assay [9] and in [10] was above 100 µM in each case.
Consider `CCOC(=O)/C(=C/c1cc(OC)ccc1OC)CC(=O)O`, for which the TGI in assay [1] is above 100 µM; in [2], above 100 µM; in [3], above 31.6 µM; in assay [4], above 31.6 µM; in assay [5], above 100 µM; in assay [6], above 100 µM. The TGI was above 100 µM in [7], 34.5 µM in [8], above 100 µM in assay [9] and above 100 µM in [10].
Regarding `O=[N+]([O-])c1ccccc1S(=O)(=O)c1ccccc1[N+](=O)[O-]`, the TGI is above 56.2 µM in [1]; above 100 µM in assay [2]; above 100 µM in assay [3]; above 100 µM in assay [4]; above 100 µM in assay [5]; above 100 µM in assay [6]. Moreover, the TGI was above 100 µM in [7], above 100 µM in assay [8], above 100 µM in [9] and 66.5 µM in assay [10].
With `CC12Oc3ccc4ccccc4c3C1c1c(ccc3ccccc13)O2` (centres undefined), the TGI in assay [1], in assay [2], in assay [3], in assay [5], in assay [6] and in assay [7] was above 100 µM each time. For the same compound, the TGI in assay [8], in [9] and in [10] was above 100 µM throughout.
With `CC(=O)c1cc2c3c(c1)c1cc4c(cc1c(=O)n3CC2)OCO4`, the TGI in assay [1], in assay [2], in [3], in assay [4], in assay [5] and in [6] was above 100 µM throughout. Besides, the TGI in assay [7], in [8], in assay [9] and in assay [10] was above 100 µM throughout.
